{
  "source": "paper PMC9942948",
  "about": "(Journal of medicinal chemistry, 2022)",
  "key": {"[1]": {"system": "HCT116 BRCA2−/− xenograft tumors", "assay": "HCT116 BRCA2−/− xenograft efficacy", "format": "in vivo, mouse", "details": "80 mg/kg BID PO, BRCA2-deficient HCT116"}, "in vitro": {"assay": "in vitro", "format": "in vitro ADME, canine", "details": "dog, MDCK"}, "[2]": {"system": "Polθ-mediated MMEJ repair at AAVS1 locus in HCT116 WT cells", "assay": "Cas9-induced double-strand DNA break assay", "format": "cell-based", "details": "Homo sapiens, HCT-116, read-out: potency in DSB repair of AAVS1 loci"}, "[3]": {"assay": "Tolerability in the xenograft study", "format": "in vivo"}, "[4]": {"system": "HCT116 BRCA2+/+ xenograft tumors", "assay": "HCT116 BRCA2+/+ xenograft efficacy", "format": "in vivo, mouse", "details": "80 mg/kg BID PO, 21 days"}, "[5]": {"target": "full-length Polθ (aa 1–2590), ATPase activity (Homo sapiens, UniProt O75417)", "sequence (O75417 whole entry, the tested form may be a part)": "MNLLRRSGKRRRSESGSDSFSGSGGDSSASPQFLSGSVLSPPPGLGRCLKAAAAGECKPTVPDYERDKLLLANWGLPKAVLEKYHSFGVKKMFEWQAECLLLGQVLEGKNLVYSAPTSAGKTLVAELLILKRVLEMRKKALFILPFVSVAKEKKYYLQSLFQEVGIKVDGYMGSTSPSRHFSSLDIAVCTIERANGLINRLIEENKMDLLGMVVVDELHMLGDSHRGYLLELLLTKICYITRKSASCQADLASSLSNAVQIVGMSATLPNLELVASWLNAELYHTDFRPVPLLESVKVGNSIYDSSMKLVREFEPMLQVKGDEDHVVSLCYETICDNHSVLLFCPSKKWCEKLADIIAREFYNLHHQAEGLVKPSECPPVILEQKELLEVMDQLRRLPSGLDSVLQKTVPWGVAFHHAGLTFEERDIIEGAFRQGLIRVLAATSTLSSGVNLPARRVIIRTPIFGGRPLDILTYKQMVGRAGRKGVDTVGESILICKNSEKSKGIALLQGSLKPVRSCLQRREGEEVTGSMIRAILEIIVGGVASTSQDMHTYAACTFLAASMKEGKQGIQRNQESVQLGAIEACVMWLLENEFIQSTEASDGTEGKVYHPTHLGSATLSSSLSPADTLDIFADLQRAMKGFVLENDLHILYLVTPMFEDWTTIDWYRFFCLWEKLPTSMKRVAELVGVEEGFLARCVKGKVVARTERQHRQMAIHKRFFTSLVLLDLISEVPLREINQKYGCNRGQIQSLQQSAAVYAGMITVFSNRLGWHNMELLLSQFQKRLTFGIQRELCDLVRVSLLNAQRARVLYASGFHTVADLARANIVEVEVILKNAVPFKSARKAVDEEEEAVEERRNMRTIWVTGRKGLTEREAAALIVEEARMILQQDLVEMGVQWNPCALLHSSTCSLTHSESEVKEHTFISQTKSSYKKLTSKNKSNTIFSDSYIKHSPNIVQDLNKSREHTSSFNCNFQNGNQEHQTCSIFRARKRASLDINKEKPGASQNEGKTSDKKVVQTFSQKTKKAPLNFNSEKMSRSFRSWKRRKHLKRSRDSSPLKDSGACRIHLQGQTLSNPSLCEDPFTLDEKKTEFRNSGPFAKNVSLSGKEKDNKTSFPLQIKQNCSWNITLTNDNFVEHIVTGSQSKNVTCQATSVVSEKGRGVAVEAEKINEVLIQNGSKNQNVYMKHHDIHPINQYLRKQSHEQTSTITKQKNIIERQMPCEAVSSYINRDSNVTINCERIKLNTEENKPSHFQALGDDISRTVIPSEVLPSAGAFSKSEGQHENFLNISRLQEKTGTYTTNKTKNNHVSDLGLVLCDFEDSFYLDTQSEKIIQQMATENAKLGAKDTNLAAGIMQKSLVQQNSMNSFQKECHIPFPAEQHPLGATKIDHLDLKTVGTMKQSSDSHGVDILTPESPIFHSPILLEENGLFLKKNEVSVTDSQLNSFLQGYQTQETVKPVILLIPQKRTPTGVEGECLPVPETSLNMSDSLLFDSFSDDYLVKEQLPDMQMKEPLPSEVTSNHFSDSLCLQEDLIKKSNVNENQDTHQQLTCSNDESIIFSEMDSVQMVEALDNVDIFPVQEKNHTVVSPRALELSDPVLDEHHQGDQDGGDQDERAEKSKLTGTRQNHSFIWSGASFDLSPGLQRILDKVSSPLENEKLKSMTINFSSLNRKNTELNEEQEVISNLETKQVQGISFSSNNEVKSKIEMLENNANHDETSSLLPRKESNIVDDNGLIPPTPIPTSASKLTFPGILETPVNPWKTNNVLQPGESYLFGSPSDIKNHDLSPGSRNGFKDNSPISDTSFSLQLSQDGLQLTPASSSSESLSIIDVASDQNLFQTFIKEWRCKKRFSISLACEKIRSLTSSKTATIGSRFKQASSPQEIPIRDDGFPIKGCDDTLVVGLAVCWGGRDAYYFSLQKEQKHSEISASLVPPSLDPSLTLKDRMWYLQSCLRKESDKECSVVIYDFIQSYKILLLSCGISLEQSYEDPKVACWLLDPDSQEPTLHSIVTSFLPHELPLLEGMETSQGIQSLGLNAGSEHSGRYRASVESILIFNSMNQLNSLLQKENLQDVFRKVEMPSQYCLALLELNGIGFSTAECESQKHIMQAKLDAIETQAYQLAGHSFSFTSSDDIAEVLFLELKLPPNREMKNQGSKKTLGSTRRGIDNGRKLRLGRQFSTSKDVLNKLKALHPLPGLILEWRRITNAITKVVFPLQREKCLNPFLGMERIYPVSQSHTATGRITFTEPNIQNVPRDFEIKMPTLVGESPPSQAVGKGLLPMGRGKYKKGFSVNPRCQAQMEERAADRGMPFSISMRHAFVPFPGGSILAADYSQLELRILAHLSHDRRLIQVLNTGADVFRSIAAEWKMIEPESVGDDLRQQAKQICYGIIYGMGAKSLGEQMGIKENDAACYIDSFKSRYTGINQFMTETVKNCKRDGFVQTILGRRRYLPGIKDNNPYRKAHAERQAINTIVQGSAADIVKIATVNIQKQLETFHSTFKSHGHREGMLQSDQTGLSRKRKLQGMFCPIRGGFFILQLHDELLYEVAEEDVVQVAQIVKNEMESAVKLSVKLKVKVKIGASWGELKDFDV", "assay": "Full-length Polθ ATPase activity", "format": "biochemical"}, "Pol λ": {"target": "T1, Pol λ (Homo sapiens, UniProt Q9UGP5)", "T1 sequence (Q9UGP5 1-575)": "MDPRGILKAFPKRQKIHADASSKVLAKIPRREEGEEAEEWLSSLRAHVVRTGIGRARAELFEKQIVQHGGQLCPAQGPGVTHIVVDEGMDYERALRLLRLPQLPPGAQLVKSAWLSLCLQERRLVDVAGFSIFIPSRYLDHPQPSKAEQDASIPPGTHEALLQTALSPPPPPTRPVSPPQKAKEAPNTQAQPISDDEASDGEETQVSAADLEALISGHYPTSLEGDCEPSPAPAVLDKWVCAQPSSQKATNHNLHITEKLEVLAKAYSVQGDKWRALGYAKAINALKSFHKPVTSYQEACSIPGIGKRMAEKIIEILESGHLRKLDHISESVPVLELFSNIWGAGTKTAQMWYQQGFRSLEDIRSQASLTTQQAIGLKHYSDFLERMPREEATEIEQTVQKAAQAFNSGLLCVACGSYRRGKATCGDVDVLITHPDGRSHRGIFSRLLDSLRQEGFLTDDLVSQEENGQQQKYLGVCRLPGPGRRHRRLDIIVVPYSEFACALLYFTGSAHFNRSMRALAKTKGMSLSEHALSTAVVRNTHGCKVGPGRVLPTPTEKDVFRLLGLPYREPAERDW", "assay": "DNA polymerase selectivity, Pol λ"}, "Pol μ": {"target": "Pol μ (Homo sapiens, UniProt Q9NP87)", "assay": "DNA polymerase selectivity, Pol μ"}, "[6]": {"assay": "Mouse PK, iv/po in CD1 mice", "format": "in vivo", "details": "female, whole blood, 2.5 mg/kg"}, "[7]": {"system": "HCT116 BRCA2−/− xenograft tumor cells", "assay": "PD markers by immunofluorescence in cells isolated from tumors", "format": "in vivo, mouse"}, "Pol ε": {"target": "Pol ε (Homo sapiens, UniProt Q07864)", "sequence (Q07864 whole entry)": "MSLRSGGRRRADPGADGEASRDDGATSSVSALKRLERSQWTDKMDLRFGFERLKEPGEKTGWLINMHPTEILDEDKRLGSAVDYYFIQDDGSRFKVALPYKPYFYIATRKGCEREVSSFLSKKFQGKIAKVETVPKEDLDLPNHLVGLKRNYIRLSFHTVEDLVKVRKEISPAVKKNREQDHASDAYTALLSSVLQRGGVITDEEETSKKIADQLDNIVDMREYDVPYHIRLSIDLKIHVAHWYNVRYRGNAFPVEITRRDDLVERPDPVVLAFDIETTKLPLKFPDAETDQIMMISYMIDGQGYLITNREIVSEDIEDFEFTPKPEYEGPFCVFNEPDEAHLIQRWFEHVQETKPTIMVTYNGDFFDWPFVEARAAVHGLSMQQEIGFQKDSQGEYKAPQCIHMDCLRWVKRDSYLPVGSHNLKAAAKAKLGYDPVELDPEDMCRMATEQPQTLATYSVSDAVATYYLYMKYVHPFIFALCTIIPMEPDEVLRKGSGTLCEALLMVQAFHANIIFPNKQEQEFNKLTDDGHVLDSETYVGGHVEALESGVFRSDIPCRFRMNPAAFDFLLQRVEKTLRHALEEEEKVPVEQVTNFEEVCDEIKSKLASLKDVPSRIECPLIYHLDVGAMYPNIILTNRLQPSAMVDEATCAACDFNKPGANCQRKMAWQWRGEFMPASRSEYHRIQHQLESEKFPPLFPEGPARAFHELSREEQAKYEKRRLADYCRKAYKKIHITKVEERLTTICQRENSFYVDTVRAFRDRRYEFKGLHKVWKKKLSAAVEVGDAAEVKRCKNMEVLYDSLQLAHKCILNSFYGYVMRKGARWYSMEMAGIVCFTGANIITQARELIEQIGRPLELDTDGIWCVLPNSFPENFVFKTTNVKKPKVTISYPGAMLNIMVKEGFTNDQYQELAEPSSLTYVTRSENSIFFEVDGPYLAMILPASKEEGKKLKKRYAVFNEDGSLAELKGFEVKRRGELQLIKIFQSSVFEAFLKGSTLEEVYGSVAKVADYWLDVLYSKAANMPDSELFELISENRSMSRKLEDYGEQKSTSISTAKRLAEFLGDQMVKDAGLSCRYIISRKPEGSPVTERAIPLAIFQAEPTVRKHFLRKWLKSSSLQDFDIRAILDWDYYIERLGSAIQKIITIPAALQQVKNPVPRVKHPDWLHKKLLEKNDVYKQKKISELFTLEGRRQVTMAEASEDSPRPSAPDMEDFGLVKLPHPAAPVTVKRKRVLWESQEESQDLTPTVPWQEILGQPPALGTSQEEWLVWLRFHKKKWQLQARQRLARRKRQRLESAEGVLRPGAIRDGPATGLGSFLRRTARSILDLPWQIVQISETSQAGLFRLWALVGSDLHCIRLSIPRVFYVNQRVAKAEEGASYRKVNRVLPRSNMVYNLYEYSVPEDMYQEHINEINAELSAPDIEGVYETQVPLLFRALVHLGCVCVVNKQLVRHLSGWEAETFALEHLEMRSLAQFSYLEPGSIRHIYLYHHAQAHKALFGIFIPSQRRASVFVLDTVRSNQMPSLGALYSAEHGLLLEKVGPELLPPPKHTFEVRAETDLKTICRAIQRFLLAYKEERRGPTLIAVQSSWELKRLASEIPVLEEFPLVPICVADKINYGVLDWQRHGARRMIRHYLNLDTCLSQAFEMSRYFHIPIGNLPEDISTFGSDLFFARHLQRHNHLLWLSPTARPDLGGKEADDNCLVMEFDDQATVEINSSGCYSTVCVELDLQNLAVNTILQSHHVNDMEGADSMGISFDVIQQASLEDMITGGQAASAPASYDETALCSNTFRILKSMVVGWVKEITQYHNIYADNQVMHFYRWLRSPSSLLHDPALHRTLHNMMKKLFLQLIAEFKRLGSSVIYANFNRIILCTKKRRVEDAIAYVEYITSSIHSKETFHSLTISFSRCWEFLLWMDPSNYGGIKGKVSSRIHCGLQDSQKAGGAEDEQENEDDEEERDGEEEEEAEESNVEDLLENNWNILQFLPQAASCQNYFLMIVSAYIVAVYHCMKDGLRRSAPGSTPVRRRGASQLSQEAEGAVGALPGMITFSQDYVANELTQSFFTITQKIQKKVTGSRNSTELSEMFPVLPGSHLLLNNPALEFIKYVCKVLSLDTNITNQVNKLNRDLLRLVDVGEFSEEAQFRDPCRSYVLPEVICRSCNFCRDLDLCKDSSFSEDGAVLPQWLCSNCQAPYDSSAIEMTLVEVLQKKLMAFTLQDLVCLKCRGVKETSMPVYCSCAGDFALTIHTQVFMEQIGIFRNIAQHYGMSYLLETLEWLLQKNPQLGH", "assay": "DNA polymerase selectivity, Pol ε"}, "[8]": {"assay": "PK on days 1 and 7 of BID oral dosing in CD-1 nude mice", "format": "in vivo", "details": "Day 7 vs Day 1, BID oral"}, "[9]": {"system": "MMEJ in 293T-Lig4−/−TLR1.1 cells", "assay": "Traffic-light reporter assay", "format": "cell-based, human", "details": "HEK293 LIG4−/− cell line"}, "WT Polθ": {"target": "WT Polθ (Homo sapiens, UniProt O75417)", "sequence (O75417 whole entry)": "as the sequence (O75417 whole entry, the tested form may be a part) above", "assay": "Differential Scanning Fluorimetry", "format": "binding", "details": "compound alone, no DNA"}, "[10]": {"assay": "Metabolite identification in human microsomes", "format": "in vitro ADME"}, "[11]": {"assay": "Mouse liver microsomal stability", "format": "in vitro ADME", "details": "liver microsomes"}, "[12]": {"assay": "Metabolite identification in mouse microsomes", "format": "in vitro ADME"}, "[13]": {"details": "nude mice, 80 mg/kg BID PO, 21 days"}},
  "data": [
    {"smiles": "Nc1ccc(C#CCN(C(=O)Cc2ncc(C(F)(F)F)cc2C(F)(F)F)c2ccc(F)cc2)nn1", "note": "[RP-6685, N-[3-(6-Aminopyridazin-3-yl)prop-2-ynyl]-2-[3,5-bis(trifluoromethyl)-2-pyridyl]-N-(4-fluorophenyl)acetamide]", "values": [
      {"measurement": "difference to vehicle by Day 21", "setting": "[1]", "value": "not statistically significant"},
      {"measurement": "Papp", "setting": "in vitro", "value": 6.2, "unit": "×10⁻⁶ cm/s"},
      {"measurement": "IC50", "setting": "[2]", "value": 500, "unit": "nM"},
      {"measurement": "MTD at 21 days", "setting": "[3]; female, CD1 Nude, mouse, in vivo, po, 80 mg/kg BID", "value": 80, "unit": "mg/kg"},
      {"measurement": "body weight change", "setting": "[3]; [13]", "value": "no significant body weight loss"},
      {"measurement": "tolerability", "setting": "[3]; [13]", "value": "well tolerated"},
      {"measurement": "tumor growth inhibition", "setting": "[4]", "value": "no tumor growth inhibition"},
      {"measurement": "activity on the ATPase activity of full-length Polθ", "setting": "[5]", "value": "inactive"},
      {"measurement": "activity on Pol λ", "setting": "Pol λ", "value": "inactive"},
      {"measurement": "activity on Pol μ", "setting": "Pol μ", "value": "inactive"},
      {"measurement": "clearance", "setting": "[6]", "value": 36.8, "unit": "mL/min/kg"},
      {"measurement": "PD markers micronuclei and γH2AX", "setting": "[7]", "value": "modest trend towards increased micronuclei and γH2AX"},
      {"measurement": "IC50", "setting": "Pol ε", "value": "> 100000", "unit": "nM"},
      {"measurement": "activity on Pol ε", "setting": "Pol ε", "value": "inactive"},
      {"measurement": "decline of exposure over the week of dosing", "setting": "[8]", "value": "55 – 67%"},
      {"measurement": "effect on MMEJ in TLR assay", "setting": "[9]", "value": "dose-dependent decrease in MMEJ"}
    ]},
    {"smiles": "CC1CCc2nn(CC(=O)N(C)c3ccccc3)c(C(F)(F)F)c21", "note": "(stereo not drawn) [Compound 9]", "values": [
      {"measurement": "thermal stabilization of WT Polθ", "setting": "WT Polθ", "value": "did not show any thermal stabilization"}
    ]},
    {"smiles": "CN(C(=S)Cn1nc2c(c1C(F)(F)F)CCC2)c1ccccc1", "note": "[Compound 14]", "values": [
      {"measurement": "thermal stabilization of WT Polθ", "setting": "WT Polθ", "value": "did not show any thermal stabilization"}
    ]},
    {"smiles": "CN(C(=O)Cc1ccc(C(F)(F)F)cc1C(F)(F)F)c1ccccc1", "note": "[Compound 15]", "values": [
      {"measurement": "major routes of metabolism", "setting": "[10]", "value": "N-demethylation and hydroxylation of the phenyl ring"},
      {"measurement": "microsomal CLint", "setting": "[11]", "value": "> 555", "unit": "µL/min/mg"},
      {"measurement": "major routes of metabolism", "setting": "[12]", "value": "N-demethylation and hydroxylation of the phenyl ring"}
    ]}
  ]
}
